Data taken from patent US10584106B1, “Antifungal compounds derived from lavender oil” (King Abdulaziz University, priority 2018, dated 2020).
Where two headings read alike, the source gives them in different places.

Experiments:
Assay in all cases: Antifungal activity by the well-cut diffusion method
Assay type in all cases: cell-based
Microsporum gallinna [1] = settings: for zone of inhibition at 500 µg/mL: Microsporum, read-out: Inhibition Zone Dimeter (mm) M. gallina
Microsporum gallinna [2] = settings: for zone of inhibition at 1000 µg/mL: Microsporum, read-out: Inhibition Zone Dimeter (mm) M. gallina
Method: (§1) Microsporum canis and Microsporum gallinna were obtained from King Fahad Hospital in Jeddah, Saudi Arabia
(§2) Antifungal Activity by the Well-Cut Diffusion Method:
Well-cut diffusion technique was used to evaluate the antifungal activities of the_tested compounds [El-Masry et al. “Synthesis and antimicrobial activity of some new benzimidazole derivatives” Molecules, 5 (2002), pp. 1429-1438]. The Sabaroud dexterous agar media was inoculated with 1 ml from tested spore suspension, then wells were cut from the plate using a sterile 10 mm cork-borer. About 0.5 and 1.0 ml of a chloroform solution containing 1.0 mg/ml of tested compounds were added into each well. All plates were incubated at 4° C. for 2 h to slow fungal growth. The plates were later incubated at 28° C. for a week [Mtolera and Semesi “Antimicrobial activity of extracts from six green algae from Tanzania.” Curr. Trends Mar. Bot. Res. East Afr. Reg. pp. 211-217 (1996)]. After incubation, the diameter of the growth inhibition zone was measured in mm [Attaie et al. Inhibition of growth of S. aureus during production of acidophilus yogurt J. Food Prot., 50 (1987), pp. 224-228], see Table 3.

Microsporum canis = settings: for zone of inhibition at 500 µg/mL / zone of inhibition at 1000 µg/mL: Microsporum canis, read-out: Inhibition Zone Dimeter (mm) M. canis
Method: as §1, §2
Well-cut diffusion technique was used to evaluate the antifungal activities of the_tested compounds [El-Masry et al. “Synthesis and antimicrobial activity of some new benzimidazole derivatives” Molecules, 5 (2002), pp. 1429-1438]. The Sabaroud dexterous agar media was inoculated with 1 ml from tested spore suspension, then wells were cut from the plate using a sterile 10 mm cork-borer. […] All plates were incubated at 4° C. for 2 h to slow fungal growth. The plates were later incubated at 28° C. for a week [Mtolera and Semesi “Antimicrobial activity of extracts from six green algae from Tanzania.” Curr. Trends Mar. Bot. Res. East Afr. Reg. pp. 211-217 (1996)]. After incubation, the diameter of the growth inhibition zone was measured in mm [Attaie et al. Inhibition of growth of S. aureus during production of acidophilus yogurt J. Food Prot., 50 (1987), pp. 224-228], see Table 3.

[3] = Concentration 0.5 mg/mL, 28° C. for a week, 10 mm wells
[4] = Concentration 1.0 mg/mL, 28° C. for a week, 10 mm wells

C=CC(C)(CCC1OC1(C)C)OC(C)=O (centres unmarked) [Epoxide 3, 6,7-Epoxy-3,7-dimethyl-1-octene-3-yl-acetate]
Inhibition Zone Dimeter (mm) M. gallina (Microsporum gallinna [1]; [3]): 37.0 mm
Inhibition Zone Dimeter (mm) M. gallina (Microsporum gallinna [2]; [4]): 74.0 mm
inhibition of Microsporum gallinna grown on the solid media (in words) (Microsporum gallinna [2]): strongly inhibited
Inhibition Zone Dimeter (mm) M. canis (Microsporum canis; [3]): 60.0 mm
Inhibition Zone Dimeter (mm) M. canis (Microsporum canis; [4]): 85.0 mm
inhibition of Microsporum canis grown on the solid media (in words) (Microsporum canis): strongly inhibited

CC(=O)OC(C)(CCC=C(C)C)C1CO1 (centres unmarked) [Epoxide 4, 1,2-Epoxy-3,7-dimethyl-6-octene-3-yl acetate]
zone of inhibition at 500 µg/mL (Microsporum gallinna [1]): 65 mm
zone of inhibition at 1000 µg/mL (Microsporum gallinna [2]): 85 mm
inhibition of Microsporum gallinna grown on the solid media (in words) (Microsporum gallinna [2]): strongly inhibited
zone of inhibition at 500 µg/mL (Microsporum canis; [3]): 75 mm
zone of inhibition at 1000 µg/mL (Microsporum canis; [4]): 85 mm
inhibition of Microsporum canis grown on the solid media (in words) (Microsporum canis): strongly inhibited

C=CC(C)(CCC(OO)C(=C)C)OC(C)=O (centres unmarked) [Hydroperoxide 5, 6-Hydroperoxy-3,7-dimethylocta-1,7-diene-3-yl acetate]
antimicrobial activity against M. gallinna, comparison among tested compounds (Microsporum gallinna [1]; 0.5 mg/ml concentration): highest antimicrobial activity
zone of inhibition at 500 µg/mL (Microsporum gallinna [1]): 80.5 mm
zone of inhibition at 1000 µg/mL (Microsporum gallinna [2]): 85 mm
inhibition of Microsporum gallinna grown on the solid media (in words) (Microsporum gallinna [2]): strongly inhibited
antimicrobial activity against M. canis, comparison among tested compounds (Microsporum canis; 0.5 mg/ml concentration): highest antimicrobial activity
zone of inhibition at 500 µg/mL (Microsporum canis; [3]): 81 mm
zone of inhibition at 1000 µg/mL (Microsporum canis; [4]): 85 mm
inhibition of Microsporum canis grown on the solid media (in words) (Microsporum canis): strongly inhibited

C=CC(C)(CC=CC(C)(C)OO)OC(C)=O (centres unmarked) [Hydroperoxide 6, 7-Hydroperoxy-3,7-dimethylocta-1,5-diene-3-yl acetate]
zone of inhibition at 500 µg/mL (Microsporum gallinna [1]): 80 mm
zone of inhibition at 1000 µg/mL (Microsporum gallinna [2]): 85 mm
inhibition of Microsporum gallinna grown on the solid media (in words) (Microsporum gallinna [2]): strongly inhibited
zone of inhibition at 500 µg/mL (Microsporum canis; [3]): 80 mm
zone of inhibition at 1000 µg/mL (Microsporum canis; [4]): 85 mm
inhibition of Microsporum canis grown on the solid media (in words) (Microsporum canis): strongly inhibited

C=CC(C)(CCC=C(C)C)OC(C)=O (centres unmarked) [Linalyl acetate, 3,7-Dimethyl-1,6-octadien-3-yl acetate, reference compound]
zone of inhibition at 500 µg/mL (Microsporum gallinna [1]): 80 mm
zone of inhibition at 1000 µg/mL (Microsporum gallinna [2]): 85 mm
inhibition of Microsporum gallinna grown on the solid media (in words) (Microsporum gallinna [2]): strongly inhibited
zone of inhibition at 500 µg/mL (Microsporum canis): 80 mm
zone of inhibition at 1000 µg/mL (Microsporum canis): 85 mm
inhibition of Microsporum canis grown on the solid media (in words) (Microsporum canis): strongly inhibited
